From paper PMC11032351, “Epigenetic modulation through BET bromodomain inhibitors as a novel therapeutic strategy for progranulin-deficient frontotemporal dementia” (Scientific Reports, 2024)
Where a SMILES comes first, the peptide text is derived from it. [ ]: non-standard residue; d: D form. ξ: configuration not given here. Aoe(9ξ) = N[C@@H](CCCCCC(=O)C1CO1)C(=O)O; dPip = O=C(O)[C@H]1CCCCN1

system: PGRN protein levels; experiment: PGRN quantification (Jess) in human NPCs; format: cell-based; settings: 100 nM, 24 h
Protocol: PGRN capillary gel electrophoresis experiments were performed using Jess (Bio-Techne) and data were processed and analyzed using Compass for Simple Western software (version 6.0). Runs were conducted using EZ Standard Pack 1 12-230 kDa (Bio-Techne PS-ST01EZ-8), 12-230 kDa pre-filled plates (PS-PP03), 12-230 kDa separation module (SMW004), anti-rabbit HRP detection ([…]-001), and total protein detection modules (DM-TP01, biotin labeling reagent 042-973) according to the manufacturer's instructions, and with anti-PGRN primary (Abcam ab208777) diluted 1:50 in milk-free antibody dilution buffer (043-524). […] All intensity quantifications are normalized to the total protein assay quantification unless otherwise indicated. NPCs were cultured normally in 6-well plates as described previously. Upon reaching confluency, DMSO or MLN-4924 (Cayman #15,217, 10 mM stock in DMSO) were diluted 1:5000 into NPC media with growth factors. 1 mL of media was aspirated from the cell cultures, and 1 mL of MLN-4924 or DMSO dilutions were then added to respective wells (final well concentration: 1 μM MLN-4924 in select wells, 0.01% DMSO for all wells). Plates returned to the incubator. […] Plates returned to the incubator. After 4 h, to the indicated wells is directly added 1 μL 2 mM mivebresib (MedChem Express HY-100015) in DMSO for a final concentration of 1 μM, or 1 μL DMSO. All plates were returned to the incubator overnight. The next day, 24 h from the addition of mivebresib, plates were removed from the incubator, and all wells were washed with 2 mL PBS, and then lysed in 300 μL M-PER lysis buffer with protease inhibitors. Cells were allowed to lyse for 15 min at 4 °C with light nutation, and then lysate was transferred to a 1.5-mL Eppendorf tube which was then spun down at 20 k rcf at 4 °C for 10 min. 200 μL of supernatant was then transferred to a fresh, labeled Eppendorf rube, which was then stored at - 20 °C prior to further analysis. Sample concentration was quantified using the BCA assay as described above, and normalized to 250 μg/mL in M-PER lysis buffer prior to PGRN quantification using the Jess. NPCs were cultured normally as described previously. 6-well plates were seeded at 300,000 cells/well in 2 mL of NPC media with EGF, bFGF, and heparin as described above. Cells were allowed to grow to confluency for three nights at 37 °C with 5% CO2. […] These solutions were then diluted 1:10 in NPC media with growth factors containing 0.2% DMSO to make 100 nM compound solutions. Treatment wells were washed with 2 mL PBS prior to addition of 2 mL NPC media with growth factors containing compound (or DMSO only) at indicated concentrations (3 replicates per condition, 6 DMSO replicates). Plates were then allowed to incubate at 37 °C with 5% CO2 for 24 h. After 24 h, cells were removed from the incubator, washed with 1 mL PBS, and then lysed with 500 μL M-PER lysis buffer (Thermo Fisher #78,501) with 1 cOmplete Mini, EDTA-free protease inhibitor added (Sigma-Aldrich#11,836,170,001) per 15 mL lysis buffer. Plates were allowed to nutate at 4 °C for 15 min before transferring the lysate to 1.5 mL Eppendorf tubes, which were then spun down at 20,000 rcf at 4 °C for 10 min. 400 μL of the supernatant was then transferred to fresh 1.5-mL Eppendorf tubes, which were then frozen down at - 80 °C prior to further use. Samples were removed from the - 80 °C and concentrations were determined via BCA assay (Thermo Scientific #23,227) using a pre-diluted BSA standard (Life Technologies #23,208) on a 96-well polystyrene plate (Thermo Fisher #12,565,500). Samples were diluted to 0.25 mg/mL using M-PER lysis buffer prior to PGRN quantification using the Jess. NPCs were cultured as described above, and seeded onto coated 24-well plates at 150,000 cells/well in 1 mL NPC media with growth factors. Plates were allowed to grow to ~ 100% confluency for three nights at 37 °C with 5% CO2. […] Plates were allowed to incubate overnight at 37 °C with 5% CO2 for 24 h. […]

| Compound | enhancement of PGRN protein levels |
| --- | --- |
| COCc1nc2cnc3cc(-c4c(C)noc4C)c(OC[C@H]4CCNC4)cc3c2n1[C@H](C)c1ccccc1 [iBET-BD1] | unable to enhance PGRN protein levels |
| CCNC(=O)c1cc2c(-c3cc(C(C)(C)O)ccc3Oc3c(C)cc(F)cc3C)cn(C)c(=O)c2[nH]1 [ABBV-744] | ~ 30% |

same assay, conditions: 24 h, various doses

| Compound | PGRN protein levels, dose-response |
| --- | --- |
| CCNC(=O)c1cc2c(-c3cc(C(C)(C)O)ccc3Oc3c(C)cc(F)cc3C)cn(C)c(=O)c2[nH]1 [ABBV-744] | mid to high nM concentrations were sufficient to enhance PGRN protein levels |

system: PGRN-Luc; experiment: HMC3 PGRN-luciferase reporter assay; format: cell-based, human; settings: HMC3 PGRN-Luc cells, 20 h
Protocol: HMC3 PGRN-Luc cells were trypsinized from confluent T-75 flasks and re-suspended in HMC-3 media at 150,000–200,000 cells/mL. 30 µL of cell suspension was then seeded onto each well of black, 384-well clear-bottom plates (Corning 3712) using the Multidrop Combi (Thermo Fisher). Cells were allowed to adhere to plates in the incubator at 37 °C/5% CO2 for 6–8 h. After 6–8 h, compounds were added to each well using the D300e (Tecan) compound dispenser, and all wells were DMSO-normalized (0.3%). Cells were allowed to incubate with compounds for indicated timeframes.
Plates were removed from the incubator and allowed to cool to RT. 15 µL of media was removed from each well using a multichannel pipette and added to separate Corning 3712 plates for a read of “secreted” PGRN. To both the media-containing plates as well as the cell-containing plates (with 15 µL media remaining) is then added 15 µL of active luminescence reagent (Thermo 18,636) which was generated according to manufacturer’s instructions. Plates were allowed to nutate at RT for 15 min prior to reading using the EnVision (PerkinElmer). For calculation of the internal PGRN-Luc signal, the secreted signal (15 µL media) was subtracted from the signal of the cell-containing plates (with 15 µL media remaining). For “total” PGRN-Luc signal, a sample of media was not aliquoted into a separate plate, and instead, 30 µL of active luminescence reagent was added directly to each well.
For the mivebresib and panobinostat time-course experiment, the above procedure was followed, with the exception that cells were seeded at 66,600 cells/mL in 30 µL media, and allowed to grow overnight prior to compound addition for the indicated timeframes.

| Compound | enhancement of internal PGRN-Luc signal | enhancement of secreted PGRN-Luc signal |
| --- | --- | --- |
| O=C(CCCCC[C@@H]1NC(=O)[C@H]2CCCCN2C(=O)[C@H](Cc2ccccc2)NC(=O)[C@H](Cc2ccccc2)NC1=O)C1CO1 (stereo partly shown) [trapoxin A] (cyclo(FF[dPip][Aoe(9ξ)])) | able to enhance both internal and secreted PGRN at sub-µM concentrations | able to enhance both internal and secreted PGRN at sub-µM concentrations |
| CC(/C=C/C(=O)NO)=C\[C@@H](C)C(=O)c1ccc(N(C)C)cc1 [trichostatin A] | able to enhance both internal and secreted PGRN at sub-µM concentrations | able to enhance both internal and secreted PGRN at sub-µM concentrations |
| CC(=O)Nc1ccc(C(=O)Nc2ccccc2N)cc1 [CI-994] | – | either weakly or entirely unable to enhance secreted PGRN |

system: GRN mRNA; experiment: qPCR of GRN mRNA in human NPCs (enhancer screen and follow-up); format: cell-based; settings: human NPCs, 24 h, dose 1 µM, relative to DMSO
Protocol: All compounds were purchased from commercial vendors. All compounds were made at 1000 × stocks in DMSO (Sigma Aldrich #D2438), except for sodium valproate, which was dissolved in ddH2O. NPCs and neurons were generated and maintained as described above. For treatment, the stock compounds were diluted 1:1000 in NPC media (final DMSO concentration 0.1%), which was then applied to confluent NPCs or 18-day differentiated neurons derived from confluent NPC cultures for indicated time periods.
RNA was generated from each well of a 6-well treated plate of NPCs or neurons. First, media from each well was aspirated, and washed with 1 mL of dPBS. Wells were then lysed with 1 mL TRIzol Reagent (ThermoFisher #11,596,026). Wells were then incubated at room temperature for 5 min, and then RNA was extracted using the DirectZol RNA MiniPrep Kit (Zymo Research #R2052). RNA was stored at − 80 °C until further use. cDNA was generated using the High-Capacity cDNA synthesis Kit with RNase inhibitor (ThermoFisher #4,368,814) using 1000–1200 ng RNA per reaction. cDNA was either used immediately or stored at -20 °C until use, where it was then diluted 1:4 with DNase/RNase-free water (Invitrogen #10,977–015).
qPCR was conducted using the Roche 480 Light Cycler in a 384-well plate. To each well was added 5 μL of TaqMan 2X Gene Expression Master Mix (ThermoFisher #4,369,510), 0.5 μL of 20X TaqMan primer probe (ThermoFisher, GRN: Hs00963707_g1, GAPDH: Cat.#432924E), 0.5 μL of DNase/RNase-free H2O, and 4 μL of above diluted cDNA. Results were normalized to GAPDH, and replicate mean values and standard error of the mean are reported.

| Compound | GRN Fold-change (Norm. to GAPDH) ± Std. Error |
| --- | --- |
| CCn1cc(-c2ccnc3[nH]c(-c4cccc(CN(C)C)c4)cc23)c(-c2ccc(NC(=O)N(C)C)cc2)n1 [GSK1070916] | 1.45 ± 0 |
| COc1cc2nc(N3CCCN(C)CC3)nc(NC3CCN(Cc4ccccc4)CC3)c2cc1OC [BIX01294] | 0.80 ± 0.04 |
| CN(C)Cc1c(C(=O)NCCOc2ccc(C(=O)NO)cc2)oc2ccccc12 [PCI-24781] | 3.68 ± 0.27 |

same assay, conditions: human NPCs, 24 h, dose 10 µM, relative to DMSO

| Compound | GRN Fold-change (Norm. to GAPDH) ± Std. Error |
| --- | --- |
| O=C(NC1CC1)c1cc(-c2cccs2)on1 [Compound Z220650400] | 1.17 ± 0.10 |
| CCOC(=O)CCNc1cc(N2CCc3ccccc3CC2)nc(-c2ccccn2)n1 [GSK-J4] | 0.76 ± 0.03 |
| CCOC(=O)Nc1cc(-c2ccc(C)c(NS(C)(=O)=O)c2)nn2c(C)nnc12 [Bromosporine, bromosporine] | 3.44 ± 0.25 |
| N#CC[C@H](C1CCCC1)n1cc(-c2ncnc3[nH]ccc23)cn1 [Ruxolitinib] | 1.26 ± 0.04 |
| Cc1c(OCC(F)(F)F)ccnc1C[S+]([O-])c1nc2ccccc2[nH]1 (stereo not shown) [Lanosoprazole] | 1.37 ± 0.23 |
| NNCCc1ccc(NC(=O)CCCc2ccccc2)cc1 [Bizine] | 0.92 ± 0.12 |
| O=C(Nc1c(Cl)cncc1Cl)c1ccc(OC(F)F)c(OCC2CC2)c1 [Roflumilast] | 1.01 ± 0.09 |
| Cc1c[nH]c(-c2cnc(NCCNc3ccc(C#N)cn3)nc2-c2ccc(Cl)cc2Cl)n1 [CHIR-99021] | 0.79 ± 0.06 |
| (-)-Eseroline fumarate | 1.10 ± 0 |
| Cn1cc(-c2ccncc2)c(-c2ccc(OCc3ccc4ccccc4n3)cc2)n1 [PF-2545920] | 1.29 ± 0.16 |
| O=C(CCCCCCNC(=O)c1cnc(N(c2ccccc2)c2ccccc2)nc1)NO [ACY-1215] | 3.63 ± 0.57 |
| c1ccc([C@@H]2C[C@H]2NC2CCNCC2)cc1 [GSK-LSD1] | 0.96 ± 0.11 |
| Cc1cc(C)c(CNC(=O)c2cc(-c3ccc(CN4CCOCC4)cc3)cc3c2cnn3C2CCCC2)c(=O)[nH]1 [EPZ005687] | 1.18 ± 0.10 |
| COC1CCC(C(=O)c2ccc3nc4c(cc3c2)CCCO4)CC1 (stereo not shown) [JNJ16259685] | 1.00 ± 0.10 |

same assay, conditions: human NPCs, 24 h, dose 10 µM, relative to DMSO; listed as bromosporine

| Compound | GRN Fold-change (Norm. to GAPDH) ± Std. Error |
| --- | --- |
| CCOC(=O)Nc1cc(-c2ccc(C)c(NS(C)(=O)=O)c2)nn2c(C)nnc12 [Bromosporine, bromosporine] | active enhancers of GRN mRNA |

same assay, conditions: human NPCs, 24 h, dose 25 µM, relative to DMSO

| Compound | GRN Fold-change (Norm. to GAPDH) ± Std. Error |
| --- | --- |
| CNC(=O)Oc1ccc2c(c1)[C@]1(C)CCN(C)[C@@H]1N2C [Eserine] | 0.73 ± 0.15 |
| (-)-Eseroline fumarate | 0.79 ± 0.46 |
